Data published in patent EP0363353B1, “FUSED BENZAZEPINES” (SCHERING CORPORATION, priority 1987, dated 1989).

Assays:
D-2 receptor = biological target: T1, D-2 receptor (Rattus norvegicus, UniProt P61169); experiment: Competitive inhibition assay, displacement of 3H-spiperone; format: binding; settings: 3H-spiperone 0.2 nM; rat striatal tissue homogenate; 37°C for 15 minutes
T1 construct: Striatal tissue was excised, pooled, and homogenized; from tissue; host or cells: rat striatum (Sprague-Dawley), washed membrane pellet
Source text: (§1) A methodology for characterization of D-1 and D-2 receptor binding and an interpretation of the data are described by Billard et al., Life Sciences 35, 1885 (1984) in which the binding of the benzazepine (R)-(+)-8-chioro-2,3,4,5-tetrahydro-3-methyi-5-phenyi-1H-3-benzazepin-7-oi hemimaleate (SCH 23390) to the dopamine D-1 receptor is characterized. A selectivity for D-1 receptor binding as compared to D-2 receptor binding is believed to confer the therapeutic advantage of avoiding troublesome and potentially irreversible neurological side effects associated with D-2 receptor occupancy. […]
(§2) Polypropylene incubation tubes received 100 µl of the individual test compounds at various concentrations dissolved or suspended in 0.05 M Tris, pH 7.4 containing 4 mg/ml methylcellulose, 100 µl of a solution of^3H-SCH 23390 in Tris buffer (final reaction mixture concentration =0.3 nM) or 100 µl of a solution of ^3H-spiperone in Tris buffer (final concentration = 0.2 nM) and 800 µl of tissue suspension (ca. 3 mg/assay). […] The filters were-transferred to scintillation vials, equilibated with 10 ml of scintillant (Scintosol, Isolab, Inc.) for 16 hours at 25°C and the radioactivity determined in a liquid scintillation counter. […]

dopamine D-1 receptor = biological target: T2, dopamine D-1 receptor (Rattus norvegicus, UniProt P18901); experiment: Competitive inhibition assay, displacement of 3H-SCH 23390; format: binding
T2 construct: Striatal tissue was excised, pooled, and homogenized; from tissue; host or cells: rat striatum (Sprague-Dawley), washed membrane pellet
Source text: as §1, §2

T2 sequence (P18901 whole entry): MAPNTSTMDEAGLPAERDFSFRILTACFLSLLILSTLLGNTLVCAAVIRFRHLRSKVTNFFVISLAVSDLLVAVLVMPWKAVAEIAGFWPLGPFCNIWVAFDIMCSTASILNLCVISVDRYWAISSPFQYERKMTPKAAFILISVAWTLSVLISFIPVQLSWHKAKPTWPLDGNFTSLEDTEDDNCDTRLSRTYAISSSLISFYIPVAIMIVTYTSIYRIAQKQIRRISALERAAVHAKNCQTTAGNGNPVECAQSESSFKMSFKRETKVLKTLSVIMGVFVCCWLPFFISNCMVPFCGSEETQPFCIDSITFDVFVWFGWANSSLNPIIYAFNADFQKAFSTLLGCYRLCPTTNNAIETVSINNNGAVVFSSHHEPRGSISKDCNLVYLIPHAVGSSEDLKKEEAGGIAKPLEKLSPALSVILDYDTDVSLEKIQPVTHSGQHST
T1 sequence (P61169 whole entry): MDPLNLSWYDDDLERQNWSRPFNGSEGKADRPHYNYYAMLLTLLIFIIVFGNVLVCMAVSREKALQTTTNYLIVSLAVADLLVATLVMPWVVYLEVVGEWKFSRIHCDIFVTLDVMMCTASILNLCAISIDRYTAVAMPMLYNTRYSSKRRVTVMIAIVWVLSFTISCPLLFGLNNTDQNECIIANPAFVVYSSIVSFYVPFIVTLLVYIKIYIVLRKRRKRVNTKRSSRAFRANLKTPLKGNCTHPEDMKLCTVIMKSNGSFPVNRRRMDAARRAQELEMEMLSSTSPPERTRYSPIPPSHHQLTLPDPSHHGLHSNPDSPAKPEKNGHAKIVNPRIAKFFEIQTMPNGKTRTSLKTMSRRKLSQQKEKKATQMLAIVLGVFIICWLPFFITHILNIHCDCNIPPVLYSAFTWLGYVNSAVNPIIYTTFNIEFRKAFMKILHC

Oc1cc2c(cc1Cl)CCN[C@H]1Cc3ccccc3[C@H]21 (racemic)
Ki (D-2 receptor): 1580 nM
Ki (dopamine D-1 receptor): 7 nM

CN1CCc2cc(Cl)c(O)cc2[C@H]2c3ccccc3C[C@@H]21 (racemic) [Trans-6-methyl-5,6,7,7a,8,12b-hexahydro-2-hydroxy-3-chloro-benz[d]indeno-[2,1-b]azepine]
Ki (D-2 receptor): 12000 nM
Ki (dopamine D-1 receptor): 7 nM
